We go through 24 compounds from patent US8853424B2 (Japan Science and Technology Agency, priority 2008, dated 2014).

For assay [1], the system named is Truncated N-terminal huntington 150 Q-EGFP-Neuron 2a cells. As to the kind of experiment: Measurement of x-Fold (polyglutamine aggregation inhibitory activity). The class given is cell-based. On the procedure: In the present invention, the polyglutamine aggregation inhibitory activity (x-Fold) can be measured, for example, by the method described in the Example.
The number of the aggregated cells, and the total number of cells were counted by Array Scan V T1 (manufactured by Cellomics, Pittuburg, USA), and the ratio of the aggregated cells to the total number of cells was determined (x-Fold). […]

Another assay has as its system transglutaminase (TGase). As to the kind of experiment: Measurement of TG (TGase inhibitory activity, monodansyl cadaverine / N,N-dimethylcasein fluorescence, FDSS 3000). The class given is biochemical. The method, boiled down:
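Compound (1 μL of 10 mM stock) added to 0.1 mL reaction: 100 mM HEPES-NaOH pH 7.5, 1 mM CaCl2, 20 μM monodansyl cadaverine, 0.05 mg/mL N,N-dimethylcasein, 5 μg/mL TGase. Rate of fluorescence change at 340 nm measured; DMSO control set to 100; TG50 is the concentration halving activity.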

[2] abbreviates: ratio of aggregated cells to total number of cells, compound 20 μM, 20 hr, almost 1 without compound, smaller = stronger inhibition.
[3] abbreviates: TGase activity with compound (10 mM, 1 μL in 0.1 ml enzyme reaction solution), DMSO control taken as 100.
[4] abbreviates: polyglutamine aggregation inhibitory activity, Table 1.
Where [5] appears, read: TGase inhibitory activity value, Table 1.

In the case of `NC(=O)CCC(N)C(=O)OB(c1ccccc1)c1ccccc1` (stereo not drawn) [Example 276, diphenyl(glutaminate-O,N)borane], the x-Fold in assay [1] (polyglutamine aggregation inhibitory activity, Table 1, listed as 854) is given as 0.8; in assay [1] (setting [2]), 0.8. The “TGase activity remaining (% of DMSO control = 100)” value was found to be 105 with transglutaminase (TGase) (setting [3]) and 105 with transglutaminase (TGase) (TGase inhibitory activity value, Table 1, listed as 854).

On to `O=C(OB(c1ccccc1)c1ccccc1)C1CNCCN1` (stereo not drawn) [Example 279, diphenyl(2-piperazinecarboxy)borane], for which the x-Fold in assay [1] (setting [4]) and in assay [1] (setting [2]) was 0.98 each time. Besides, the “TGase activity remaining (% of DMSO control = 100)” value in the assay on transglutaminase (TGase) (setting [3]) and with transglutaminase (TGase) (setting [5]) was 103 in each case.

`NCCC(N)C(=O)OB(c1ccccc1)c1ccccc1` (stereo not drawn) [Example 280, diphenyl(2,4-diaminolacetic acid)borane]: the x-Fold in assay [1] (polyglutamine aggregation inhibitory activity, Table 1, listed as 897) is reported as 0.88; in assay [1] (setting [2]) it was 0.88. The “TGase activity remaining (% of DMSO control = 100)” value in the assay with transglutaminase (TGase) (setting [3]) came out at 98; in the assay with transglutaminase (TGase) (TGase inhibitory activity value, Table 1, listed as 897), 98.

Turning to `Cc1ccc(B(OC(=O)c2ccccn2)c2ccc(C)c(Cl)c2)cc1Cl` [Example 281, di(3-chloro-4-methylphenyl)-(picolinate-O,N)borane], the x-Fold in assay [1] (setting [2]) was determined as 0.94. Moreover, the “TGase activity remaining (% of DMSO control = 100)” value in the assay with transglutaminase (TGase) (setting [3]) turned out to be 77.

Take `O=C(OB(c1ccc(C(F)(F)F)cc1)c1ccc(C(F)(F)F)cc1)c1ccccn1` [Example 284, di(4-trifluoromethylphenyl) (picolinate-O,N)borane]: the x-Fold in assay [1] (setting [4]) and in assay [1] (setting [2]) was 1.03 each time. Also, the “TGase activity remaining (% of DMSO control = 100)” value with transglutaminase (TGase) (setting [3]) and in the assay with transglutaminase (TGase) (setting [5]) was 89 throughout.

For the compound `Cc1ccc(B(OC(=O)C(N)CCCNC(N)=O)c2ccc(C)c(Cl)c2)cc1Cl` (stereo not drawn) [Example 287, di(3-chloro-4-methylphenyl)(citrullinate-O,N)borane], the x-Fold in assay [1] (setting [4]) and in assay [1] (setting [2]) was 1.00 throughout. The “TGase activity remaining (% of DMSO control = 100)” value in the assay with transglutaminase (TGase) (setting [3]) and in the assay with transglutaminase (TGase) (setting [5]) was 146 throughout.

As for `Cc1ccc(B(OC(=O)C(N)CCN)c2ccc(C)c(Cl)c2)cc1Cl` (stereo not drawn) [Example 293, di(3-chloro-4-methylphenyl)(2,4-diaminobutyrate-O,N)borane], the x-Fold in assay [1] (setting [4]) and in assay [1] (setting [2]) was 0.91 throughout. Also, the “TGase activity remaining (% of DMSO control = 100)” value in the assay with transglutaminase (TGase) (setting [3]) and with transglutaminase (TGase) (setting [5]) was 116 each time.

Consider `OB(c1ccc(COCCOc2ccc(B(O)c3cccs3)cc2)cc1)c1cccs1` [Example 296, (4-(2-thiophenehydroxyboryl)phenoxyethyl)(4′-(2-thiophenehydroxyboryl)benzyl)ether], for which the x-Fold in assay [1] (setting [4]) and in assay [1] (setting [2]) was 0.74 in each case. The “TGase activity remaining (% of DMSO control = 100)” value with transglutaminase (TGase) (setting [3]) and in the assay with transglutaminase (TGase) (setting [5]) was 97 in each case.

Take `OB(c1ccccc1)c1ccccc1B(O)c1ccccc1` [Example 297, 1,2-di(phenylhydroxyboryl)benzene]: the x-Fold in assay [1] (polyglutamine aggregation inhibitory activity, Table 1, listed as 806) was determined as 0.69; in assay [1] (setting [2]), 0.69. Besides, the “TGase activity remaining (% of DMSO control = 100)” value was found to be 89 in the assay with transglutaminase (TGase) (setting [3]) and 89 with transglutaminase (TGase) (TGase inhibitory activity value, Table 1, listed as 806).

Regarding `NCCOB(c1ccccc1)c1ccccc1B(OCCN)c1ccccc1` [Example 298, 1,2-di(phenylaminoethoxyboryl)benzene], the x-Fold in assay [1] (setting [4]) and in assay [1] (setting [2]) was 1.01 throughout. For the same compound, the “TGase activity remaining (% of DMSO control = 100)” value in the assay on transglutaminase (TGase) (setting [3]) and with transglutaminase (TGase) (setting [5]) was 101 each time.

For `NC(=O)CCC(N)C(=O)OB(c1ccsc1)c1ccc2sc3ccc(B(OC(=O)C(N)CCC(N)=O)c4ccsc4)cc3c2c1` (stereo not drawn) [Example 304, 2,8-di(3-thiophenylglutamine-O,N boryl)dibenzothiophene], the x-Fold in assay [1] (setting [4]) and in assay [1] (setting [2]) was 0.90 in each case. The “TGase activity remaining (% of DMSO control = 100)” value with transglutaminase (TGase) (setting [3]) and with transglutaminase (TGase) (setting [5]) was 47 in each case.

As for `N#Cc1ccc(B(O)c2ccc(C#N)cc2)cc1` [Example 305, 4,4′-di(cyano-phenyl)borinic acid], the x-Fold in assay [1] (polyglutamine aggregation inhibitory activity, Table 1, listed as 6095) stood at 0.98; in assay [1] (setting [2]), 0.98. Moreover, the “TGase activity remaining (% of DMSO control = 100)” value in the assay with transglutaminase (TGase) (setting [3]) is recorded as 94; with transglutaminase (TGase) (TGase inhibitory activity value, Table 1, listed as 6095) it was 94.

Consider `N#Cc1cccc(B(O)c2cccc(C#N)c2)c1` [Example 306, 3,3′-di(cyano-phenyl)borinic acid], for which the x-Fold in assay [1] (setting [4]) and in assay [1] (setting [2]) was 0.98 in each case. For the same compound, the “TGase activity remaining (% of DMSO control = 100)” value in the assay on transglutaminase (TGase) (setting [3]) and with transglutaminase (TGase) (setting [5]) was 90 throughout.

Consider `COc1ccc(B(O)c2cccc(COCc3cccc(B(O)c4ccc(OC)cc4)c3)c2)cc1` [Example 328, bis(3-(4-methoxyphenylhydroxyboryl)benzyl)ether], for which the x-Fold in assay [1] (setting [2]) was 1.04. Besides, the “TGase activity remaining (% of DMSO control = 100)” value with transglutaminase (TGase) (setting [3]) was found to be 100.

Turning to `OB(c1ccccc1)c1cccc(COCc2ccccc2B(O)c2ccccc2)c1` [Example 330, (2-(phenylhydroxyboryl)benzyl)(3-(phenylhydroxyboryl)benzyl)ether], the x-Fold is on record as 0.90 in assay [1] (polyglutamine aggregation inhibitory activity, Table 1, listed as 655) and 0.90 in assay [1] (setting [2]). Besides, the “TGase activity remaining (% of DMSO control = 100)” value is given as 89 in the assay on transglutaminase (TGase) (setting [3]) and 89 in the assay on transglutaminase (TGase) (TGase inhibitory activity value, Table 1, listed as 655).

For the compound `NCCOB(c1ccccc1)c1ccc(COCc2ccccc2B(OCCN)c2ccccc2)cc1` [Example 335, (2-(phenylaminoethoxyboryl)benzyl) (4-(phenylaminoethoxyboryl)benzyl)ether], the x-Fold in assay [1] (setting [4]) and in assay [1] (setting [2]) was 1.02 each time. Besides, the “TGase activity remaining (% of DMSO control = 100)” value in the assay with transglutaminase (TGase) (setting [3]) and in the assay with transglutaminase (TGase) (setting [5]) was 91 in each case.

`OB(c1ccc(F)cc1)c1cccc(COCc2cccc(B(O)c3ccc(F)cc3)c2)c1` [Example 336, bis(3-(4-fluorophenylhydroxyboryl)benzyl)ether]: the x-Fold in assay [1] (setting [4]) and in assay [1] (setting [2]) was 1.02 throughout. Further, the “TGase activity remaining (% of DMSO control = 100)” value in the assay with transglutaminase (TGase) (setting [3]) and with transglutaminase (TGase) (setting [5]) was 101 in each case.

`Fc1ccc(NCCOBc2cccc(COCc3cccc(BOCCNc4ccc(F)cc4)c3)c2)cc1` [Example 337, bis(3-(4-fluorophenylaminoethoxyboryl)benzyl)ether]: the x-Fold in assay [1] (setting [4]) and in assay [1] (setting [2]) was 0.98 throughout. Also, the “TGase activity remaining (% of DMSO control = 100)” value with transglutaminase (TGase) (setting [3]) and in the assay on transglutaminase (TGase) (setting [5]) was 102 in each case.

For the compound `Cc1cc(B(O)c2ccc(COCc3ccc(B(O)c4ccc(Cl)c(C)c4)cc3)cc2)ccc1Cl` [Example 338, bis(4-(4-chloro-3-methyl-phenyl)hydroxyborylbenzyl)ether], the x-Fold in assay [1] (polyglutamine aggregation inhibitory activity, Table 1, listed as 693) was 0.83; in assay [1] (setting [2]), 0.83. Moreover, the “TGase activity remaining (% of DMSO control = 100)” value stood at 110 with transglutaminase (TGase) (setting [3]) and 110 in the assay on transglutaminase (TGase) (TGase inhibitory activity value, Table 1, listed as 693).

With `Cc1cc(B(OCCN)c2ccc(COCc3ccc(B(OCCN)c4ccc(Cl)c(C)c4)cc3)cc2)ccc1Cl` [Example 339], the x-Fold in assay [1] (setting [4]) and in assay [1] (setting [2]) was 0.91 in each case. Besides, the “TGase activity remaining (% of DMSO control = 100)” value in the assay with transglutaminase (TGase) (setting [3]) and with transglutaminase (TGase) (setting [5]) was 115 each time.

As to `Cc1ccc(B(O)c2ccc(COCc3cccc(B(O)c4ccc(C)c(Cl)c4)c3)cc2)cc1Cl` [Example 341, (3-(3-chloro-4-methylphenylhydroxyboryl)benzyl)(4-(3-chloro-4-methylphenylhydroxyboryl)benzyl)ether], the x-Fold in assay [1] (setting [2]) stood at 1.04. Moreover, the “TGase activity remaining (% of DMSO control = 100)” value with transglutaminase (TGase) (setting [3]) came out at 107.

For the compound `OB(c1ccc(COCc2cccc(B(O)c3cc(F)c(F)c(F)c3)c2)cc1)c1cc(F)c(F)c(F)c1` [Example 342, (3-(3′,4′,5′-trifluorophenylhydroxyboryl)benzyl)(4-(3′,4′,5′-trifluorophenylhydroxyboryl)benzyl)ether], the x-Fold in assay [1] (setting [4]) and in assay [1] (setting [2]) was 1.02 throughout. The “TGase activity remaining (% of DMSO control = 100)” value in the assay on transglutaminase (TGase) (setting [3]) and in the assay with transglutaminase (TGase) (setting [5]) was 114 in each case.

With `COc1ccc(NCCOBc2cccc(COCc3cccc(BOCCNc4ccc(OC)cc4)c3)c2)cc1` [Example 343, bis(3-(4-methoxyphenylaminoethoxyboryl)benzyl)ether], the x-Fold in assay [1] (setting [4]) and in assay [1] (setting [2]) was 1.02 throughout. The “TGase activity remaining (% of DMSO control = 100)” value with transglutaminase (TGase) (setting [3]) and with transglutaminase (TGase) (setting [5]) was 55 throughout.

Regarding `Cc1cc(B(O)c2cccc(COCc3ccccc3B(O)c3ccc(Cl)c(C)c3)c2)ccc1Cl` [Example 344, (3-(4-chloro-3-methylphenylhydroxyboryl)benzyl)(2-(4-chloro-3-methylphenylhydroxyboryl)benzyl)ether], the x-Fold in assay [1] (setting [4]) and in assay [1] (setting [2]) was 0.93 in each case. In addition, the “TGase activity remaining (% of DMSO control = 100)” value in the assay with transglutaminase (TGase) (setting [3]) and in the assay with transglutaminase (TGase) (setting [5]) was 91 throughout.
